Entries after “also recorded” stand apart in the source; their conditions may differ. Where two headings read alike, the source gives them in different places.
Tests used:
Assay type in all cases: cell-based
mouse P23H opsin = molecular target: T1, mouse P23H opsin (Mus musculus, UniProt P15409, P23H); test: High-content imaging analysis of P23H opsin immunostaining in NIH3T3-(P23H opsin/GFP) cells; conditions: ratio of P23H rod opsin fluorescence on plasma membrane to whole cell; for EC50: read-out: Immunostaining HCS MEM-Total ratio EC50
T1 construct: expressed in transfected cells
Method: To characterize the effect of active compounds on the localization of P23H-mutant opsin in mammalian cells, an image-based assay was used with cells immunostained for WT or P23H-mutant opsin protein[18]. Briefly, NIH3T3-(P23H opsin/GFP) or NIH3T3-(WT-opsin/GFP) cells were seeded at 5000 cells per well in a 384-well cell-carrier plate (PerkinElmer) and incubated at 37 °C with 5% CO2 for 2 h. Cells were treated with compounds as described for the β-Gal fragment complementation assay and incubated in assay medium for 24 h. The assay medium then was aspirated, and cells were fixed with 4% paraformaldehyde at 20 µL per well for 20 min at RT. Cells were immunostained in one of two ways: cell membranes were either permeabilized with 0.1% Triton X-100 for 15 min or left intact and then were incubated with 10% goat serum (Life Technologies). To detect opsin on the cell plasma membrane only, intact cells were immunostained with 20 µL per well of 20 µg mL^−1 B6-30 anti-rhodopsin antibody that recognizes the N-terminal epitope on the extracellular side of rhodopsin. To detect total opsin, cells were permeabilized with Triton X-100 and immunostained with 50 µg mL^−1 1D4 anti-rhodopsin antibody specific for the C-terminal epitope on the intracellular side of rhodopsin. Opsin immunostaining was visualized by incubating cells with 5 µg mL^−1 Cy3-conjugated goat anti-mouse IgG antibody. Three washes with phosphate-buffered saline (PBS: 10 mM Na2HPO4, 1.8 mM KH2PO4, pH 7.4, 137 mM NaCl, and 2.7 mM KCl) were performed between each step of incubation with antibody. In the last wash with PBS, DAPI was added to each well at 300 nM. Fluorescence images were obtained with the Operetta High Content Imaging System (PerkinElmer) using a ×20 long objective. Five fields were taken of each well for cell images using three channels for fluorescence: GFP (100 ms), Cy3 (300 ms), and DAPI (50 ms). Images were analyzed with Acapella software from the Columbus data storage and analysis system (PerkinElmer)[18]. For cells immunostained with opsin on the non-permeabilized cell membrane only, an average of total fluorescence intensity of Cy3 per cell was used to quantify opsin in each well of the 384-well plate. For cells immunostained with opsin in permeabilized whole cells, an average ratio of Cy3 intensity on the cell plasma membrane (PM) to that of the entire cell (opsin ratio PM-to-total) was calculated for each well of a 384-well plate to quantify opsin transport to the plasma membrane. The plasma membrane was defined within ± 5% of the cell border.

mouse P23H-opsin mutant = mouse P23H-opsin mutant (Mus musculus, UniProt P15409, P23H); test: β-Gal fragment complementation assay: rescue of P23H opsin transport from ER to plasma membrane, U2OS(PLC-EA/P23H-PK) cells
Text: U2OS(PLC-EA/P23H-PK) cells. A U2OS stable cell line was generated by DiscoveRx, Inc. (Fremont, CA, USA) for the β-Gal fragment complementation assay used in the small-molecule HTS for rescue of P23H-opsin transport. U2OS cells that continually express P23H-PK and PLC-EA fusion proteins were generated. Briefly, this small subunit of β-Gal (PK fragment) was fused to the C-terminal of the mouse P23H-opsin mutant, while the large EA fragment, a subunit of β-Gal, was fused with PLC, a plasma membrane-anchored peptide. Both constructs were subcloned by DicoveRx, Inc. and transferred into U2OS cells by viral infections. Positive clones were selected under treatment with hygromycin and geneticin.
Briefly, U2OS(PLC-EA /P23H-PK) cells were suspended in assay medium at 3 × 10^5 cells mL^−1. The cell suspension was dispensed into 384-well plates (Greiner Bio-one, Monroe, NC, USA) at 20 µL per well, with a Multidrop dispenser (Thermo Scientific, Waltham, MA, USA). Plates with cells then were centrifuged at 200×g for 15 s before incubation at 37 °C with 5% CO2. Plates were removed 24 h later for treatment with tested compounds. A total of 248 plates containing 79,080 compounds from three small-molecule libraries were paired with an equal number of assay plates with cultured cells. Owing to a limited capacity, these plates were assayed in seven batches. An average of 56.3 nL of 10 mM compound in DMSO was dispensed into each well from column 3 to 22 of paired assay plates using a 50 nL 384-pintool system, such that the final concentration of each compound was 22.52 µM on average. […] Each assay plate was shaken for 5 s before further incubation at 37 °C with 5% CO2. After 24 h, assay plates were removed, and each well was incubated with 25 µL of 1× Gal-Screen assay buffer (1:24 substrate-buffer ratio). Assay plates were incubated in the dark for 60–90 min, and luminescence was read from each assay plate with an Envision microplate reader (PerkinElmer) during a 0.1 s per well integration time. The mean and s.d. of readouts in column 2 of each plate were calculated as Mean0% and SD0%, whereas the average and s.d. of readouts in column 23 were calculated as Mean100% and SD100%. Eq. 1: Activity scores (%) = (RLUcp − Mean0%)/(Mean100% − Mean0%) × 100%, where RLUcp is the relative luminescence unit derived for cells treated with a compound. Eq. 2: Z′-factor = 1–3 × (SD0% + SD100%)/(Mean100% − Mean0%)[32]; Eq. 3: signal-to-background (S/B) ratio = Mean100%/Mean0%. Activities of all tested compounds were registered with their compound ID by GeneData Screener (Genedata, Basel, Switzerland) and Pipeline Pilot software (Accelrys, San Diego, CA, USA). Hits, cherry-picked from a separate stock dose-dependent activity test, were selected with an activity score cutoff at 20%. Activity of each hit was tested again with the β-Gal fragment complementation assay in a 10-dose series with each dose tested in triplicate. The 10 doses tested were 80, 40, 20, 10, 5, 2.5, 1.25, 0.625, 0.313, and 0.156 µM. Dose-dependent curves of each hit compound were fitted with GeneData and Origin software.
Detailed synthetic steps are described in Supplementary Note and Supplementary Fig. 9. […] YC-002-YC-021 were purchased from commercial vendors including Enamine LLC (Monmouth Jct., NJ, USA), Matrix Scientific (Columbia, SC, USA) and Tokyo Chemical Industry Co., Ltd. (Portland, OR, USA). […] Activities of YC compounds were tested with the β-Gal fragment complementation assay, as described in a prior section. All YC compounds were tested at 10 doses, each in triplicate: 80, 40, 20, 10, 5, 2.5, 1.25, 0.625, 0.313, and 0.156 µM.

P23H opsin = molecular target: T2, P23H opsin (Mus musculus, UniProt P15409, P23H); test: Immunoblot of P23H opsin glycosylation in NIH3T3 cell lysates; set-up: key to Improved glycosylation: n = no; y = yes; conditions: P23H opsin
T2 construct: expressed in transfected cells
Method: NIH3T3-(P23H opsin/GFP) or NIH3T3-(WT-opsin/GFP) cells were seeded in a 48-well plate (Corning Costar) at 3.2 × 10^5 cells per well and incubated at 37 °C with 5% CO2 for 2 h. One hundred-µL of assay medium containing a compound at 5× its final concentration was added to each well. The plate was gently shaken for 5 s before further incubation at 37 °C with 5% CO2 for 24 h. The assay medium then was aspirated, and cells were lysed with 100 µL per well PBS containing 0.1% Triton X-100 and complete protease inhibitor cocktail (Roche, Basel, Switzerland) followed by sonication for 3 s. Protein concentrations were determined with the Bradford assay. For PNGaseF catalyzed deglycosylation, 3 µL of PNGaseF (1500 U, NEB) was added to the cell lysate and the mixture was incubated at room temperature for 1 h before immunoblotting. For NIH3T3-(P23H opsin/GFP) cells, 15 µg of total protein were loaded per well onto an SDS-polyacrylamide gel; whereas for NIH3T3-(WT-opsin/GFP) cells, 5 µg of total protein was loaded per well. Opsin protein was immunostained with 0.2 μg mL^−1 horseradish peroxidase-conjugated 1D4 anti-rhodopsin antibody. Band intensities were measured with ImageJ software (http://imagej.nih.gov/ij/; National the Institutes of Health, Bethesda, MD, USA) and normalized to a glyceraldehyde 3-phosphate dehydrogenase (GAPDH) loading control. Full scans of immunoblotted membranes are shown in Supplementary Fig. 8.

[1] = 24 h; 5 µM 9-cis-retinal = 100%; experimental maximum
[2] = 24 h; 5 µM 9-cis-retinal = 100%; from curve fitting
[3] = 24 h preincubation; activity standardized to 5 µM 9-cis-retinal as 100%; Hill fit; read-out: β-Gal fragment complementation assay Activity score (%) EC50
[4] = modifications linked to C3 of the furan-2(5H)-one ring; 10 doses 0.156-80 µM; read-out: Potency EC50

Compound	activity in rescuing P23H-opsin transport (in words) (mouse P23H-opsin mutant)	EC50 (mouse P23H-opsin mutant; [4])	Emax (mouse P23H-opsin mutant; U2OS; read-out: Efficacy (%))	further results
O=C(NCCn1ncc2c(NCc3ccco3)ncnc21)c1cc(-c2ccccc2)on1 [Compound F2902-1134]				Immunostaining HCS MEM-Total ratio Max (fit) (mouse P23H opsin): 0.031; EC50 (mouse P23H opsin): 4.15 µM; β-Gal fragment complementation assay Activity score (%) Max (Exp) (mouse P23H-opsin mutant; [1]): 23.1%; β-Gal fragment complementation assay Activity score (%) Max (fit) / Efficacy (mouse P23H-opsin mutant; [2]): 31.5%; EC50 (mouse P23H-opsin mutant; [3]): 21.6 µM; Improved glycosylation (P23H opsin): n
COCCNC(=O)c1sc2c(cnc3ccc(OC)cc32)c1-c1ccccc1 [Compound F3382-5924]				Immunostaining HCS MEM-Total ratio Max (fit) (mouse P23H opsin): 0.046; EC50 (mouse P23H opsin): 2.42 µM; β-Gal fragment complementation assay Activity score (%) Max (fit) / Efficacy (mouse P23H-opsin mutant; [2]): 155%; EC50 (mouse P23H-opsin mutant; [3]): 28.6 µM; Improved glycosylation (P23H opsin): y
O=C(Cn1c2c(c(=O)n(C3CCCCC3)c1=O)CCC2)Nc1cccc(F)c1 [Compound F5111-0031]				Immunostaining HCS MEM-Total ratio Max (fit) (mouse P23H opsin): 0.025; EC50 (mouse P23H opsin): 6.76 µM; β-Gal fragment complementation assay Activity score (%) Max (Exp) (mouse P23H-opsin mutant; [1]): 60.4%; β-Gal fragment complementation assay Activity score (%) Max (fit) / Efficacy (mouse P23H-opsin mutant; [2]): 165%; EC50 (mouse P23H-opsin mutant; [3]): 54.3 µM; Improved glycosylation (P23H opsin): y
O=C(C1CC1)N(CCn1cccn1)c1nc2c(Cl)cccc2s1 [Compound F5581-0240]				Immunostaining HCS MEM-Total ratio Max (fit) (mouse P23H opsin): 0.010; EC50 (mouse P23H opsin): 0.64 µM; β-Gal fragment complementation assay Activity score (%) Max (Exp) (mouse P23H-opsin mutant; [1]): 244%; β-Gal fragment complementation assay Activity score (%) Max (fit) / Efficacy (mouse P23H-opsin mutant; [2]): 230%; EC50 (mouse P23H-opsin mutant; [3]): 5.93 µM; Improved glycosylation (P23H opsin): y
Cc1sc(C)c(C2C(=O)OC(=O)C2c2c(C)sc(C)c2C)c1C (stereo not drawn) [YC-018]				EC50 (mouse P23H-opsin mutant; more than one site modified; read-out: Potency): 138 µM
O=C1OCC(c2ccc(Cl)s2)=C1c1ccco1 [YC-028]	failed to retain activity			
O=C1OCC(c2ccc(Cl)s2)=C1c1ccccn1 [YC-043]	activity was preserved or improved; also recorded: improved potency, efficacy, or solubility	19 µM		Efficacy (%) (mouse P23H-opsin mutant; modifications at C3; normalized to 5 µM 9-cis-retinal): 214%
O=C1OCC(c2ccc(Cl)s2)=C1c1ccccc1 [YC-047]	activity was preserved or improved	9.87 µM	188%	
O=C1OCC(c2ccco2)=C1c1cccs1 [YC-049]	some activity that remained			EC50 (mouse P23H-opsin mutant): 91.9 µM; Emax (mouse P23H-opsin mutant; U2OS, read-out: Efficacy (%)): 112%
O=C1OCC(c2ccc(Cl)s2)=C1c1cccc(F)c1 [YC-050]	lower efficacies	7.36 µM	131%	
O=C1OCC(c2ccc(Cl)s2)=C1c1ccsc1 [YC-051]	activity was preserved or improved	10.9 µM	169%	
COc1ccc(C2=C(c3ccc(Cl)s3)COC2=O)cc1 [YC-052]		7.13 µM	10%	
O=C1OCC(c2ccc(Cl)s2)=C1c1ccc(F)cc1 [YC-053]	little efficacy	24.1 µM	32.9%	
Cc1c(F)cccc1C1=C(c2ccc(Cl)s2)COC1=O [YC-054]	improved potency, efficacy, or solubility	3.53 µM	227%	
O=C1OCC(c2ccc(Cl)s2)=C1c1ccc(Cl)cc1Cl [YC-055]		5.33 µM	11%	
COc1cccc(C2=C(c3ccc(Cl)s3)COC2=O)c1Cl [YC-056]		9.39 µM	104%	
O=C1NCC(c2ccc(Cl)s2)=C1c1cccs1 [YC-060]			7.1%	EC50 (mouse P23H-opsin mutant; modifications of the furan-2(5H)-one ring; read-out: Potency): 24.6 µM
O=C1OCC(c2ccc(Cl)s2)=C1c1ccccc1F [YC-068]	relatively higher efficacies; also recorded: improved potency, efficacy, or solubility	5.66 µM	261%	
